From ChEMBL document CHEMBL1201862, “PubChem BioAssay data set” (2004)
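Briefly, cells in 96-well plates were exposed to five compound concentrations for 48 h, and endpoints were estimated by linear interpolation. Here, GI50 denotes the concentration required for 50% inhibition of growth.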 Active and inactive are the calls of the source. Rule as the data show it: active = GI50 up to about 1.1 µM and inactive = higher.

Key:
Assay in all cases: growth of human tumour cells (NCI), 48 h
ACHN = tested on: ACHN
NCI-H226 = tested on: NCI-H226
MOLT-4 = tested on: MOLT-4
A549 = tested on: A549
SF-539 = tested on: SF-539
OVCAR-4 = tested on: OVCAR-4
SW-620 = tested on: SW-620
UACC-62 = tested on: UACC-62
BT-549 = tested on: BT-549
SF-268 = tested on: SF-268
DU-145 = tested on: DU-145
EKVX = tested on: EKVX
K562 = tested on: K562
T47D = tested on: T47D
SK-OV-3 = tested on: SK-OV-3
OVCAR-5 = tested on: OVCAR-5
MDA-MB-435 = tested on: MDA-MB-435
RXF 393 = tested on: RXF 393
HCT-116 = tested on: HCT-116
HCT-15 = tested on: HCT-15
KM12 = tested on: KM12
SK-MEL-2 = tested on: SK-MEL-2
SN12C = tested on: SN12C
SNB-75 = tested on: SNB-75
CCRF-CEM = tested on: CCRF-CEM
HT-29 = tested on: HT-29
OVCAR-8 = tested on: OVCAR-8
Malme-3M = tested on: Malme-3M
NCI/ADR-RES = tested on: NCI/ADR-RES
MCF7 = tested on: MCF7
MDA-N = tested on: MDA-N
HL-60 = tested on: HL-60
CAKI-1 = tested on: CAKI-1
786-0 = tested on: 786-0
SK-MEL-28 = tested on: SK-MEL-28
NCI-H522 = tested on: NCI-H522
HOP-62 = tested on: HOP-62
Hs-578T = tested on: Hs-578T
RPMI-8226 = tested on: RPMI-8226
IGROV-1 = tested on: IGROV-1
SNB-19 = tested on: SNB-19
NCI-H23 = tested on: NCI-H23
UACC-257 = tested on: UACC-257
OVCAR-3 = tested on: OVCAR-3
M14 = tested on: M14
HCC 2998 = tested on: HCC 2998
MDA-MB-231 = tested on: MDA-MB-231
SF-295 = tested on: SF-295
LOX IMVI = tested on: LOX IMVI
NCI-H460 = tested on: NCI-H460
PC-3 = tested on: PC-3
U-251 = tested on: U-251
TK-10 = tested on: TK-10
A498 = tested on: A498
COLO 205 = tested on: COLO 205
UO-31 = tested on: UO-31
HOP-92 = tested on: HOP-92
SK-MEL-5 = tested on: SK-MEL-5

CCOC(=O)/C(C(=O)Nc1ccc(Cl)cc1)=C(/N)N1CCCC1
GI50 (ACHN): 45.6 µM (inactive)
GI50 (NCI-H226): > 100 µM (inactive)
GI50 (MOLT-4): 71.6 µM (inactive)
GI50 (A549): > 100 µM (inactive)
GI50 (SF-539): > 100 µM (inactive)
GI50 (OVCAR-4): 69.3 µM (inactive)
GI50 (SW-620): > 100 µM (inactive)
GI50 (UACC-62): 42 µM (inactive)
GI50 (BT-549): > 100 µM (inactive)
GI50 (SF-268): > 100 µM (inactive)
GI50 (DU-145): > 100 µM (inactive)
GI50 (EKVX): > 100 µM (inactive)
GI50 (K562): 66.7 µM (inactive)
GI50 (T47D): > 100 µM (inactive)
GI50 (SK-OV-3): > 100 µM (inactive)
GI50 (OVCAR-5): > 100 µM (inactive)
GI50 (MDA-MB-435): > 100 µM (inactive)
GI50 (RXF 393): > 100 µM (inactive)
GI50 (HCT-116): 94 µM (inactive)
GI50 (HCT-15): > 100 µM
GI50 (KM12): > 100 µM (inactive)
GI50 (SK-MEL-2): 49.3 µM (inactive)
GI50 (SN12C): > 100 µM (inactive)
GI50 (SNB-75): > 100 µM (inactive)
GI50 (CCRF-CEM): > 100 µM (inactive)
GI50 (HT-29): > 100 µM (inactive)
GI50 (OVCAR-8): > 100 µM (inactive)
GI50 (Malme-3M): > 100 µM (inactive)
GI50 (NCI/ADR-RES): > 100 µM (inactive)
GI50 (MCF7): > 100 µM (inactive)
GI50 (MDA-N): > 100 µM (inactive)
GI50 (HL-60): > 100 µM (inactive)
GI50 (CAKI-1): > 100 µM (inactive)
GI50 (786-0): > 100 µM (inactive)
GI50 (SK-MEL-28): > 100 µM (inactive)
GI50 (NCI-H522): > 100 µM (inactive)
GI50 (HOP-62): > 100 µM (inactive)
GI50 (Hs-578T): > 100 µM (inactive)
GI50 (RPMI-8226): 97.9 µM (inactive)
GI50 (IGROV-1): 54.2 µM (inactive)
GI50 (SNB-19): > 100 µM (inactive)
GI50 (NCI-H23): > 100 µM (inactive)
GI50 (UACC-257): > 100 µM (inactive)
GI50 (OVCAR-3): > 100 µM (inactive)
GI50 (M14): > 100 µM (inactive)
GI50 (HCC 2998): > 100 µM (inactive)
GI50 (MDA-MB-231): > 100 µM (inactive)
GI50 (SF-295): > 100 µM (inactive)
GI50 (LOX IMVI): > 100 µM (inactive)
GI50 (NCI-H460): > 100 µM (inactive)
GI50 (PC-3): > 100 µM (inactive)
GI50 (U-251): > 100 µM (inactive)
GI50 (TK-10): > 100 µM (inactive)
GI50 (A498): 64.4 µM (inactive)
GI50 (COLO 205): > 100 µM (inactive)

COc1ccccc1C1=C2C(=O)N(C)C(c3ccccc3OC)=C2C(=O)N1C
GI50 (ACHN): 68.5 µM (inactive)
GI50 (NCI-H226): 84.3 µM (inactive)
GI50 (MOLT-4): > 100 µM (inactive)
GI50 (A549): 44.1 µM (inactive)
GI50 (SF-539): 27.6 µM (inactive)
GI50 (OVCAR-4): 37.2 µM (inactive)
GI50 (SW-620): > 100 µM (inactive)
GI50 (UACC-62): > 100 µM (inactive)
GI50 (BT-549): > 100 µM (inactive)
GI50 (SF-268): 36.1 µM (inactive)
GI50 (DU-145): > 100 µM (inactive)
GI50 (EKVX): > 100 µM (inactive)
GI50 (K562): > 100 µM (inactive)
GI50 (T47D): 71.3 µM (inactive)
GI50 (SK-OV-3): 69.8 µM (inactive)
GI50 (OVCAR-5): > 100 µM (inactive)
GI50 (MDA-MB-435): > 100 µM (inactive)
GI50 (HCT-116): 37.4 µM (inactive)
GI50 (HCT-15): > 100 µM
GI50 (KM12): > 100 µM (inactive)
GI50 (SN12C): > 100 µM (inactive)
GI50 (CCRF-CEM): > 100 µM (inactive)
GI50 (HT-29): > 100 µM (inactive)
GI50 (OVCAR-8): 39.2 µM (inactive)
GI50 (Malme-3M): 45.4 µM (inactive)
GI50 (NCI/ADR-RES): 45.7 µM (inactive)
GI50 (MCF7): > 100 µM (inactive)
GI50 (MDA-N): > 100 µM (inactive)
GI50 (HL-60): > 100 µM (inactive)
GI50 (CAKI-1): > 100 µM (inactive)
GI50 (786-0): 29.5 µM (inactive)
GI50 (SK-MEL-28): 76.6 µM (inactive)
GI50 (NCI-H522): 43.2 µM (inactive)
GI50 (HOP-62): 18.9 µM (inactive)
GI50 (Hs-578T): 43.8 µM (inactive)
GI50 (IGROV-1): > 100 µM (inactive)
GI50 (SNB-19): 32 µM (inactive)
GI50 (NCI-H23): 59 µM (inactive)
GI50 (UO-31): 50.8 µM (inactive)
GI50 (UACC-257): 79.8 µM (inactive)
GI50 (OVCAR-3): 33.5 µM (inactive)
GI50 (HOP-92): 30.3 µM (inactive)
GI50 (M14): > 100 µM (inactive)
GI50 (HCC 2998): > 100 µM (inactive)
GI50 (MDA-MB-231): 48.1 µM (inactive)
GI50 (SF-295): 51.4 µM (inactive)
GI50 (LOX IMVI): > 100 µM (inactive)
GI50 (NCI-H460): 84.1 µM (inactive)
GI50 (PC-3): > 100 µM (inactive)
GI50 (SK-MEL-5): > 100 µM (inactive)
GI50 (U-251): 37.9 µM (inactive)
GI50 (TK-10): 70.6 µM (inactive)
GI50 (A498): 63 µM (inactive)
GI50 (COLO 205): > 100 µM (inactive)

Cc1ccc(/C=N/NC2=NCCN2)s1
GI50 (ACHN): > 100 µM (inactive)
GI50 (NCI-H226): 79.4 µM (inactive)
GI50 (MOLT-4): > 100 µM (inactive)
GI50 (A549): > 100 µM (inactive)
GI50 (SF-539): > 100 µM (inactive)
GI50 (OVCAR-4): > 100 µM (inactive)
GI50 (SW-620): > 100 µM (inactive)
GI50 (UACC-62): > 100 µM (inactive)
GI50 (BT-549): 23.3 µM (inactive)
GI50 (SF-268): > 100 µM (inactive)
GI50 (DU-145): > 100 µM (inactive)
GI50 (EKVX): > 100 µM (inactive)
GI50 (K562): 41 µM (inactive)
GI50 (T47D): > 100 µM (inactive)
GI50 (SK-OV-3): > 100 µM (inactive)
GI50 (OVCAR-5): > 100 µM (inactive)
GI50 (MDA-MB-435): > 100 µM (inactive)
GI50 (RXF 393): > 100 µM (inactive)
GI50 (HCT-116): > 100 µM (inactive)
GI50 (HCT-15): > 100 µM
GI50 (KM12): > 100 µM (inactive)
GI50 (SK-MEL-2): > 100 µM (inactive)
GI50 (SN12C): > 100 µM (inactive)
GI50 (SNB-75): > 100 µM (inactive)
GI50 (HT-29): > 100 µM (inactive)
GI50 (OVCAR-8): > 100 µM (inactive)
GI50 (Malme-3M): > 100 µM (inactive)
GI50 (NCI/ADR-RES): > 100 µM (inactive)
GI50 (MCF7): > 100 µM (inactive)
GI50 (MDA-N): > 100 µM (inactive)
GI50 (HL-60): > 100 µM (inactive)
GI50 (CAKI-1): > 100 µM (inactive)
GI50 (786-0): > 100 µM (inactive)
GI50 (SK-MEL-28): > 100 µM (inactive)
GI50 (NCI-H522): > 100 µM (inactive)
GI50 (HOP-62): > 100 µM (inactive)
GI50 (Hs-578T): > 100 µM (inactive)
GI50 (RPMI-8226): > 100 µM (inactive)
GI50 (IGROV-1): > 100 µM (inactive)
GI50 (SNB-19): > 100 µM (inactive)
GI50 (NCI-H23): > 100 µM (inactive)
GI50 (UO-31): 44.9 µM (inactive)
GI50 (UACC-257): > 100 µM (inactive)
GI50 (OVCAR-3): > 100 µM (inactive)
GI50 (HOP-92): > 100 µM (inactive)
GI50 (M14): > 100 µM (inactive)
GI50 (HCC 2998): > 100 µM (inactive)
GI50 (MDA-MB-231): > 100 µM (inactive)
GI50 (SF-295): > 100 µM (inactive)
GI50 (LOX IMVI): > 100 µM (inactive)
GI50 (PC-3): > 100 µM (inactive)
GI50 (SK-MEL-5): > 100 µM (inactive)
GI50 (U-251): > 100 µM (inactive)
GI50 (TK-10): > 100 µM (inactive)
GI50 (COLO 205): > 100 µM (inactive)
